Data published in patent US20220249463A1, “METHODS OF ALTERING CARDIAC REMODELING USING COMPOUNDS THAT PROMOTE GLUCOSE OXIDATION” (IMBRIA PHARMACEUTICALS, INC., priority 2019, published 2022).

Legend:
[1] = system: TAC mice; assay: TAC mice: left ventricular pressure with Mikro-tip catheter; format: in vivo; conditions: end of 6-week treatment
[2] = system: TAC mice; assay: TAC mice, six weeks treatment: heart weight and heart weight/body weight; format: in vivo; conditions: 6 weeks
[3] = system: TAC mice; assay: TAC mice: echocardiography; format: in vivo
[4] = Stability of CV-8972 forms in solvents, X-ray powder diffraction; format: physicochemical
Protocol: Samples from batch 289-MBA-15-A (containing form B) were added to various solvents, incubated under various conditions, and analyzed by X-ray powder diffraction.
Samples from batch 289-MBA-16 (containing forms A and B) were added to various solvents, incubated under various conditions, and analyzed by X-ray powder diffraction.
Samples from batch S-18-0030513 (containing form A) were added to various solvents, incubated under various conditions, and analyzed by X-ray powder diffraction.

[5] = TMZ 6, NA 2.4, CV-8814 7.5, CV-8972 10 mg/kg/day

XRPD results ([4]; batch 289-MBA-15-A (containing form B), ACN/H2O (90:10) Aw = 0.83, Slurry, RT, 5 d): Form A | XRPD results ([4]; batch 289-MBA-15-A (containing form B), Acetone/H2O (90:10) Aw = 0.72, Slurry, RT, 5 d): Form A | XRPD results ([4]; batch 289-MBA-15-A (containing form B), EtOAc/H2O (97:3) Aw = 0.94, Slurry, RT, 5 d): Form A | XRPD results ([4]; batch 289-MBA-15-A (containing form B), EtOAc, Slurry, RT, 5 d): Form A + Form B | XRPD results ([4]; batch 289-MBA-15-A (containing form B), EtOH/H2O (90:10) Aw = 0.52, Slurry, RT, 5 d): Form A | XRPD results ([4]; batch 289-MBA-15-A (containing form B), EtOH, CC from 60° C.): Form C + minor Form A | XRPD results ([4]; batch 289-MBA-15-A (containing form B), EtOH, Slurry, RT, 3 d): Form A + Form B | XRPD results ([4]; batch 289-MBA-15-A (containing form B), IPA/H2O (90:10) Aw = 0.67, Slurry, RT, 5 d): Form A | XRPD results ([4]; batch 289-MBA-15-A (containing form B), IPA/H2O (98:2) Aw = 0.26, Slurry, RT, 5 d): Form A | XRPD results ([4]; batch 289-MBA-15-A (containing form B), MEK, Slurry, RT, 5 d): Form A | XRPD results ([4]; batch 289-MBA-15-A (containing form B), MeOH/H2O (80:20) Aw = 0.48, Slurry, RT, 5 d): Form A | XRPD results ([4]; batch 289-MBA-15-A (containing form B), MeOH/H2O (95:5) Aw = 0.16, Slurry, RT, 5 d): Form A | XRPD results ([4]; batch 289-MBA-15-A (containing form B), MeOH, Slurry, RT, 5 d): Form A + Form B | XRPD results ([4]; batch 289-MBA-15-A (containing form B), no solvent, 100° C., 20 minutes, result wraps over r24-r26: Form B, shifted with minor Form A): Form B, | XRPD results ([4]; batch 289-MBA-16 (containing forms A and B), EtOAc, Attempted to dissolve at ~60° C., solids remained, cooled slowly to RT, let stir at RT from 60° C. (Table 60)): Form A + Form B | XRPD results ([4]; batch 289-MBA-16 (containing forms A and B), EtOAc, SC from 60° C. (Table 63)): Form A + Form B | XRPD results ([4]; batch 289-MBA-16 (containing forms A and B), EtOH, SC from 60° C.): Form A + Form C | XRPD results ([4]; batch 289-MBA-16 (containing forms A and B), EtOH, Slurry, RT, 3 d (Table 60)): Form A + Form B | XRPD results ([4]; batch 289-MBA-16 (containing forms A and B), EtOH, Slurry, RT, 3 d (Table 63)): Form A + Form B | XRPD results ([4]; batch 289-MBA-16 (containing forms A and B), MeOH/H2O (95:5), Slurry, overnight, 1 g scale): Form A | XRPD results ([4]; batch 289-MBA-16 (containing forms A and B), MeOH, VD w/ MTBE (Table 63)): Form A | XRPD results ([4]; batch 289-MBA-16 (containing forms A and B), MeOH, Vapor diffusion w/ MTBE (Table 60)): Form A | XRPD results ([4]; batch 289-MBA-16 (containing forms A and B), THF, SC from 60° C.): Form B | XRPD results ([4]; batch S-18-0030513 (containing form A), CHCl3, Slurry, RT): Form A | XRPD results ([4]; batch S-18-0030513 (containing form A), EtOAc, Slurry, RT): Form A | XRPD results ([4]; batch S-18-0030513 (containing form A), EtOH, Crash cool from 70° C.): Form A + Form C | XRPD results ([4]; batch S-18-0030513 (containing form A), MEK/H2O 99:1, Slow cool from 70° C.): Form A | XRPD results ([4]; batch S-18-0030513 (containing form A), THF, Slurry, RT): Form A | XRPD results ([4]; batch S-18-0030513 (containing form A), no solvent, 80° C., 20 minutes): Form A with slight peak shifting | XRPD results ([4]; batch S-18-0030513 (containing form A), no solvent, 97% RH Stress of Form A dried at 80° C. for 20 min): Form A | XRPD results ([4]; batch S-18-0030513 (containing form A), no solvent, 100° C., 20 minutes): Form B + Form A, shifted | XRPD results ([4]; batch S-18-0030513 (containing form A), no solvent, VO, RT): Form A
Compound: COc1ccc(CN2CCN(CCOC(=O)c3cccnc3)CC2)c(OC)c1OC [CV-8972, 2-(4-(2,3,4-trimethoxybenzyl)piperazin-1-yl)ethyl nicotinate]
+dp/dtm [1]: 4541±395 mm Hg/sec | -dp/dtm [1]: −4126±339 mm Hg/sec | left ventricular developed pressure (LVDP) [1, 5]: 116±9 mm Hg | cardiac remodeling in TAC mice (in words) [2, 5]: effectively inhibited cardiac remodeling | cardiac mass ([2]; TAC mice, TMZ 6, CV-8814 7.5, CV-8972 10 mg/kg/day, osmotic minipump): 225 ± 11 mg | heart weight to body weight ratio ([2]; TAC mice, TMZ 6, NA 2.4, CV-8814 7.5, CV-8972 10 mg/kg/day, subcutaneous osmotic minipump): 7.4 ± 0.3 mg/g | EF (in words) ([3]; 3-weeks after TAC): significantly increased | IVRT ([3]; 3-weeks after TAC): 32 ± 1 ms | IVSd ([3]; 3-weeks after TAC): 1.29±0.04 mm | LV mass ([3]; 3-weeks after TAC): 154 ± 8 mg | left ventricular FS ([3]; 3-weeks after TAC, CV-8814 7.5, CV-8972 10 mg/kg/day): 47%±3% | IVRT ([3]; 6-weeks after TAC): 31 ± 2 ms | IVSd ([3]; 6-weeks after TAC): 1.26±0.04 mm | LV mass ([3]; 6-weeks after TAC): 156 ± 10 mg | left ventricular FS ([3]; 6-weeks after TAC (end of the experiment)): 46%±3% | cardiac functions in TAC mice (in words) ([3]; conclusion, 6 weeks treatment): improved cardiac functions | EF (in words) ([3]; to the end of the study (6 weeks)): protective effect was sustained to the end of the study
